From ChEMBL document CHEMBL1201862, “PubChem BioAssay data set” (2004)
Calls of active or inactive are those of the source.

How the values were obtained:
[1] = target: T1, Tyrosine-protein phosphatase non-receptor type 7 (Homo sapiens, UniProt P35236); assay: inhibition of hematopoietic tyrosine phosphatase HePTP – biochemical, set 2, SAR follow-up (AID 449736); format: functional
T1 sequence (P35236 whole entry): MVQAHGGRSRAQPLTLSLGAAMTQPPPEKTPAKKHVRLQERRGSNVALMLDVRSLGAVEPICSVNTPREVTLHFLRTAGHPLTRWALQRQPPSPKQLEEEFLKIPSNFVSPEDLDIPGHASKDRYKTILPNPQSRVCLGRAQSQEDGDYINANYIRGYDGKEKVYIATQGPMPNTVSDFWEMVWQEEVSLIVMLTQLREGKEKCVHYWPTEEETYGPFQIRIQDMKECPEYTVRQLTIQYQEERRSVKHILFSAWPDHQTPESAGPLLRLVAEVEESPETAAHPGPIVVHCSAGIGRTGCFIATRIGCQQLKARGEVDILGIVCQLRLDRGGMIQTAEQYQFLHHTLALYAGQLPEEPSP

CHO-K1 = assay: (§1) Counterscreen for antagonists of the orexin 1 receptor (OX1R; HCRTR1): Homogeneous time resolved fluorescence (HTRF)-based cell-based dose response assay to identify antagonists of the parental CHO-K1 cell line. [Related pubchem assays (depositor defined):AID434989, AID435008, AID463079, AID485270, AID492963, AID492964, AID492965, AID493232, AID504699, AID504701]; format: functional; details: Cricetulus griseus
[2] = as §1, with “Fluorescence-based” for “Homogeneous time resolved fluorescence (HTRF)-based”, “cell-based high throughput” for “cell-based”, “CHO” for “CHO-K1”; format: functional
[3] = target: T2, Orexin/Hypocretin receptor type 1 (Homo sapiens, UniProt O43613); assay: Homogeneous Time Resolved Fluorescence (HTRF)-based cell-based high throughput dose response assay for antagonists of the orexin 1 receptor (OX1R; HCRTR1). [Related pubchem assays (depositor defined):AID434989, AID435008, AID463079, AID485270, AID492963, AID492964, AID492965, AID493232, AID504717, AID504718]; format: functional
[4] = target: T2, Orexin/Hypocretin receptor type 1; assay: Fluorescence-based cell-based high throughput dose response assay for antagonists of the orexin 1 receptor (OX1R; HCRTR1). [Related pubchem assays (depositor defined):AID434989, AID435008, AID463079, AID485270, AID492963, AID492964, AID492965, AID493232, AID504717, AID504718]; format: functional
[5] = target: Voltage-dependent T-type calcium channel subunit alpha-1H (Homo sapiens, UniProt O95180); assay: human CACNA1H calcium influx blockade – cell-based, synthetic library set 2, HEK293 HH8, Fluo-4, SAR follow-up (AID 493023); format: functional
CAAX prenyl protease 2 = target: T3, CAAX prenyl protease 2 (Saccharomyces cerevisiae S288c, UniProt Q03530); format: biochemical
T3 sequence (Q03530 whole entry): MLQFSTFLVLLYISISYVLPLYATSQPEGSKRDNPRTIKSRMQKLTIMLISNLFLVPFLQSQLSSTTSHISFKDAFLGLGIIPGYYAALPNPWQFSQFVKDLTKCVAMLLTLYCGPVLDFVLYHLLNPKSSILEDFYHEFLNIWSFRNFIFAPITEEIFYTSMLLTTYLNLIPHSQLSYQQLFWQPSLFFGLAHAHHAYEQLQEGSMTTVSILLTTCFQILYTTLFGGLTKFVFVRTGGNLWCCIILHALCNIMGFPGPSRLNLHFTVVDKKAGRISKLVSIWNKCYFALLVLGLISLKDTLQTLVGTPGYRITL

[6] = toxicity toward cultured mammalian cells – cell-based, plate reader, cherry-pick samples, cytotoxicity control, dose response (AID 504397); format: functional

T2 sequence (O43613 whole entry): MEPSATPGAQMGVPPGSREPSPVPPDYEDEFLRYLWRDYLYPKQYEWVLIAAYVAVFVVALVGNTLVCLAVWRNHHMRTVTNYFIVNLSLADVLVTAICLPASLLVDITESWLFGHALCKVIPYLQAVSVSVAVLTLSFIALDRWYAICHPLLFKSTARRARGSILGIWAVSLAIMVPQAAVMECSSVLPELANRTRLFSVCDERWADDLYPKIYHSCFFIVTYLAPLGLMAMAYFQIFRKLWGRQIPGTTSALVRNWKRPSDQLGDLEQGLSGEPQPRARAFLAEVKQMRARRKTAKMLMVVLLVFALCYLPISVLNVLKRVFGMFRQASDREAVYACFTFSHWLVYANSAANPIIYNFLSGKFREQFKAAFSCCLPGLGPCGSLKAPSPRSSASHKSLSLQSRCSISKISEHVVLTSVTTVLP
Voltage-dependent T-type calcium channel subunit alpha-1H, sequence (O95180 whole entry): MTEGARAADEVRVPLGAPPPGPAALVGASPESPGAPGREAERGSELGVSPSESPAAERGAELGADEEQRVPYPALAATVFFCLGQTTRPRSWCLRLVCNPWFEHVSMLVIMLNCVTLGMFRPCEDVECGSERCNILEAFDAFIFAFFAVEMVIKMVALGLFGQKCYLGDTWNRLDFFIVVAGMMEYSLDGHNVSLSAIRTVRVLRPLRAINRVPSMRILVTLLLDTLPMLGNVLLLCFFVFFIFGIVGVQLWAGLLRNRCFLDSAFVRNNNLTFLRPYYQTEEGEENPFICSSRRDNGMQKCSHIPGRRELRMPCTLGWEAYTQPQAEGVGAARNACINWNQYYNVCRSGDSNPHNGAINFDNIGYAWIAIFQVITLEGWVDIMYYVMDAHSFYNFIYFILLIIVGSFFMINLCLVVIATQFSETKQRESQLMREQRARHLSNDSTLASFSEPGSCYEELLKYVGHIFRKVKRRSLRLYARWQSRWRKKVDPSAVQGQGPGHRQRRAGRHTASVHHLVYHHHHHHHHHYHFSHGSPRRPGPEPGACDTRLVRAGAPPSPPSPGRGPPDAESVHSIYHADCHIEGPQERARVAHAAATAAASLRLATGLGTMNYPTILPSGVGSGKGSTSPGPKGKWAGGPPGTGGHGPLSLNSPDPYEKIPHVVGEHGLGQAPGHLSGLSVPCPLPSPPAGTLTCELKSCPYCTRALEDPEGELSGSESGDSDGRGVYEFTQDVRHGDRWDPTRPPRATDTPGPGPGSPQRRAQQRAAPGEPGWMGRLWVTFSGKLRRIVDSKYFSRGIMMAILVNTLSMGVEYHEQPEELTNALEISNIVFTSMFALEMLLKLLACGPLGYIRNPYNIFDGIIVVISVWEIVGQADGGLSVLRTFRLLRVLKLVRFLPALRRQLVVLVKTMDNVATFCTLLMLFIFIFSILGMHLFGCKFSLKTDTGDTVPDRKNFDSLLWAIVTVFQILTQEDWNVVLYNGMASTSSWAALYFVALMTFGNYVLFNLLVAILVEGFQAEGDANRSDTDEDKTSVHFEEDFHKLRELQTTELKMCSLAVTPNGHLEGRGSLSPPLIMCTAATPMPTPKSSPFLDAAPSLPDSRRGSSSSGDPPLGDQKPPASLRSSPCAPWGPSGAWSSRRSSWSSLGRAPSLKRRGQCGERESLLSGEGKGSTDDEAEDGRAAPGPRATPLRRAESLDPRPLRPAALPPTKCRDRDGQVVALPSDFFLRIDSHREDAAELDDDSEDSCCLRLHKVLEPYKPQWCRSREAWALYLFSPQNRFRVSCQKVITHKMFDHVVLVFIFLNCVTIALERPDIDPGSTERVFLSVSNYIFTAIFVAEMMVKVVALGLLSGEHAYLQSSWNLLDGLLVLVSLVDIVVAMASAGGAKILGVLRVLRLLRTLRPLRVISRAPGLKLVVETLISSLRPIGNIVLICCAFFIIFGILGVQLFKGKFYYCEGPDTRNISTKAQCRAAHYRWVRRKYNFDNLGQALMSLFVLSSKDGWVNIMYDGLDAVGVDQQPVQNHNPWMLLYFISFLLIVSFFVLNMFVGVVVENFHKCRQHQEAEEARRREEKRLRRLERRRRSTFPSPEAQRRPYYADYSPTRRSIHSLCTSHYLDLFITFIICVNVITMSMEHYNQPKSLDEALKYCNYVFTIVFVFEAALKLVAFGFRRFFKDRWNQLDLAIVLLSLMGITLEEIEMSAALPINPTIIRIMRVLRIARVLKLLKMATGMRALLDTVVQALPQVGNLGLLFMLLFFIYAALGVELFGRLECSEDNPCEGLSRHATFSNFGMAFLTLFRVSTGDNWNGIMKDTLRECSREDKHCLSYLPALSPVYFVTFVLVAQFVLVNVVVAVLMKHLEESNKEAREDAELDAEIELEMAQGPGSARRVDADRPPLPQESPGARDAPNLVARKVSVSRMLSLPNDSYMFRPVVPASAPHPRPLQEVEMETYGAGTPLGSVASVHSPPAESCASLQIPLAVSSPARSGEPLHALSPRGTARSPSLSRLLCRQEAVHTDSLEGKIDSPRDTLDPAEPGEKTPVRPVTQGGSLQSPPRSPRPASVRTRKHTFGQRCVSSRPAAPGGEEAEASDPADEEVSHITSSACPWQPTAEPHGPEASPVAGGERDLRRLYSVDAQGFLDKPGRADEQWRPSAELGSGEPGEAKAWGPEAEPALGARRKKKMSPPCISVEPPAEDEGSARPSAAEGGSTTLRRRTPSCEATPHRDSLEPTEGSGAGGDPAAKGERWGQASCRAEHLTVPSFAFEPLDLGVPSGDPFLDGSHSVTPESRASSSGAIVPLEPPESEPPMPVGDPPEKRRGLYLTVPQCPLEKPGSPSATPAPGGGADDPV

In the case of `Cc1ccc(-n2c(N)c(C(=O)Nc3ccccc3F)sc2=S)cc1C`, the IC50 [1] is reported as 50.5 µM (active).
In the case of `CC(=O)NC(N=C(S)Nc1ccc(N=Nc2ccccc2)cc1)C(Cl)(Cl)Cl` (stereo not drawn), the IC50 (CHO-K1) is reported as > 66.2 µM (inactive), the IC50 [2] is reported as > 5.53 µM (active) and the IC50 [3] is reported as 42.3 µM (inactive). The IC50 [4] was 6.68 µM (active).
With `CC(C)(C)CCN1CCC[C@@H](NC(=O)COc2ccccc2Cl)C1` the EC50 [5] was 10 µM (active).
For `Nc1nnnn1/N=C/c1cccc(OCc2ccccc2Cl)c1`, the AC50 (CAAX prenyl protease 2) was 2.78 µM (active) and the AC50 [6] was > 350 µM (inactive).
